# Data published in patent US20040102454A1, “Phenylahistin and the phenylahistin analogs, a new class of anti-tumor compounds” (priority 1998, published 2004).
# Like-named read-outs stand apart in the source and are kept apart here.
# Legend:
# P388 cells = experiment: P388 proliferation, Alamar Blue assay; assay type: cell-based, murine; conditions: for IC50: Mus musculus
# [1] = system: microtubules in A549 cells; experiment: Immunofluorescence staining of microtubules; assay type: cell-based, human; conditions: 6 hours incubation
# Procedure: Immunocytochemical staining was performed using the method described by Yahara, I. et al., Cell (1978) 15, 251-259. A549 cells were cultured on glass coverslips and incubated with the test drug for 6 hours. The cells were then fixed with 3.7% formaldehyde for 30 min, permeabilized with 0.2% Triton X-100 for 5 min, and incubated with a mouse monoclonal antibody against α-tubulin (Calbiochem®, Oncogene Research Products, Cambridge, Mass.), followed by incubation with fluorescein isothiocyanate-conjugated goat anti-mouse IgG from Cosmo Bio Co., (Tokyo, Japan), and the cells were examined under an immunofluorescent microscope.
# A. fumigatus isolate #1 = experiment: Antifungal susceptibility testing, broth dilution (NCCLS M38-A); assay type: cell-based; conditions: Aspergillus fumigatus, 80% reduction in turbidity
# Procedure: (§1) Antifungal susceptibility testing was accomplished according to the methods outlined in the National Committee for Clinical Laboratory Standards, M38-A “Reference Method for Broth Dilution Antifungal Susceptibility Testing of Conidium-Forming Filamentous Fungi; Approved Standard.” This includes testing in RPMI-1640 with glutamine and without bicarbonate, an inoculum size of 0.4-5×10^4, and incubation at 30 or 35° C. for 48 hours. […] Drug concentrations were 0.03-16 μg/ml for the investigational compounds, 0.015-8 μg/ml for itraconazole and griseofulvin.
# (§2) The minimum lethal concentration (MLC) was determined by plating […] from the MIC concentration and each concentration above the MIC. […] When a MIC was obtained, a minimum fungicidal concentration (MFC) was determined to assess the fungistatic/fungicidal nature of the compound. […] The compound is scored as fungistatic if the cells are able to resume growth and fungicidal if no regrowth is possible because the compound had killed the organisms.
# A. fumigatus isolate #2 = experiment: as above; assay type: cell-based; conditions: Aspergillus fumigatus, 80% reduction in turbidity
# Procedure: as §1, §2
# [2] = system: A-549 cells derived from human lung cancer; experiment: Cell proliferation inhibition, MTT (Example 2); assay type: cell-based; conditions: A549, read-out: IC50 (concentration that inhibited cell proliferation 50%), A-549, 48 hours
# Procedure: Into each well of a 96-well microtiter plate, 100 μl of A-549 cells derived from human lung cancer prepared to 10^5 cells/ml in a culture medium obtained by adding 10% bovine fetus serum to EMEM culture medium (Nissui Seiyaku Co., Ltd.) having antitumor effect against A-549 cells derived from human lung cancer was placed. Methanol solution of racemic NSCL-96F037 obtained as in Example 1 was added to the wells of the uppermost row, specimens were diluted by the half-log dilution method and added, and the plate was incubated in a carbon dioxide gas incubator at 37° C. for 48 hours. The result was added in lots of 10 μl with MTT reagent (3-(4,5-dimethyl-2-thiazole)-2,5-diphenyl-2H-tetra bromide) (1 mg/ml•PBS), followed by incubation in a carbon dioxide gas incubator at 37° C. for 6 hours. The culture medium was discarded and the crystal of produced in the cells was dissolved in 100 μl/well of dimethylsulfoxide. Absorption of 595 nm light was then measured with a microplate reader.
# [3] = system: Aspergillus niger IFO6341; experiment: Antimicrobial test, filter paper agar flat plate method; assay type: cell-based; conditions: 100 μg of specimen on 9 mm filter paper
# Procedure: (§3) Using colibacillus strain JM109 as a gram-negative bacterium, Bacillus natto as a […] and Aspergillus niger IFO6341 as a mold, the following antimicrobial test was conducted by the filter paper agar flat plate method, wherein 100 μg of specimen was placed on 9 mm filter paper, dried in air, and standard agar culture medium was used for bacteria and potato dextrose agar culture medium for mold. […] An antimicrobial test was further conducted by the liquid culture medium dilution method using the yeast strain Saccharomyces cerevisise HF7C.
# Bacillus natto = experiment: as above; assay type: cell-based; conditions: 100 μg of specimen on 9 mm filter paper
# Procedure: as §3
# [4] = system: colibacillus strain JM109; experiment: as above; assay type: cell-based; conditions: 100 μg of specimen on 9 mm filter paper
# Procedure: as §3
# Cell strain A431 = experiment: Cell cycle inhibiting activity, flow cytometer and microscopic observation; assay type: cell-based, human
# Procedure: Cell strain A431 derived from […] was used. EMEM culture medium containing 10% bovine fetus serum and 1% MEM nonessential amino acid solution (SIGMA M2025) was used to incubate A431 cells at 37° C. in an incubator saturated with 5% carbon dioxide gas and water vapor. The refined specimen of racemic phenylahistin obtained in EXAMPLE 1 was added to the cells in the log-growth phase and progression of the cell cycle was analyzed by flow cytometer and microscopic observation. The results, shown in Table 1, indicate that this phenylahistin was useful as a cell cycle inhibitor.
# P388 leukemia cells = experiment: In vivo antitumor activity against P388 leukemia; parameters: species or system mice
# Procedure: Male CDF1 mice (4 weeks old) were inoculated intraperitoneally with P388 leukemia cells (1×10^6 cells/body) on day 0. […] Each group consisted of six mice. A T/C (%) was calculated according to the following formula:
# T/C (%)=[(mean number of survival days of treated group)/(mean number of survival days of control group)]×100
# [5] = 4.2 mg/kg (1 mg/kg calculated (−)-PLH) i.p. daily days 1 to 12
# [6] = 12.5 mg/kg (3 mg/kg calculated (−)-PLH) i.p. daily days 1 to 12
# [7] = 42 mg/kg (10 mg/kg calculated (−)-PLH) i.p. daily days 1 to 12
# [8] = 125 mg/kg (30 mg/kg calculated (−)-PLH) i.p. daily days 1 to 12
smiles,measurement,setting,value
C=CC(C)(C)c1[nH]cnc1/C=C1\NC(=O)[C@H](Cc2ccccc2)NC1=O [(−)-phenylahistin],times more active than (+)-phenylahistin in anti-proliferative assays,P388 cells,50 times
same,IC50,"P388 cells; P388, read-out: IC50 P388 proliferation",210 nM
same,IC50,"P388 cells; P388, read-out: IC50 for P388 Proliferation",210 nM
same,"times less active than colchicine, anti-proliferative activity",P388 cells; P388,about 10 times
same,microtubule structure (anti α-tubulin staining),[1],disappearance of the microtubule network
same,MIC,A. fumigatus isolate #1,> 16 µg/mL
same,MIC,A. fumigatus isolate #2,> 16 µg/mL
"C=CC(C)(C)c1[nH]cnc1/C=C1\NC(=O)[C@H](Cc2ccccc2)NC1=O (racemic) [PLH, phenylahistin]",IC50,[2],0.3 µg/mL
same,antimicrobial activity,[3],No antimicrobial activity
same,antimicrobial activity,Bacillus natto,No antimicrobial activity
same,antimicrobial activity,[4],No antimicrobial activity
same,Inhibiting effect (cell cycle),Cell strain A431; Concentration 0.5 μg/ml,Absent (Absent: The cell cycle stopped at the G2/M phase in less than 10% of the cells.)
same,Inhibiting effect (cell cycle),Cell strain A431; Concentration 1.0 μg/ml,Absent (Absent: The cell cycle stopped at the G2/M phase in less than 10% of the cells.)
same,Inhibiting effect (cell cycle),Cell strain A431; Concentration 2.0 μg/ml,Slight (Slight: The cell cycle stopped at the G2/M phase in not less than 10% and less than 50% of the cells.)
same,Inhibiting effect (cell cycle),Cell strain A431; Concentration 4.0 μg/ml,Slight (Slight: The cell cycle stopped at the G2/M phase in not less than 10% and less than 50% of the cells.)
same,Inhibiting effect (cell cycle),Cell strain A431; Concentration 8.0 μg/ml,Present (Present: The cell cycle stopped at the G2/M phase in not less that 50% of the cells.)
same,Inhibiting effect (cell cycle),Cell strain A431; Concentration 32.0 μg/ml,Present (Present: The cell cycle stopped at the G2/M phase in not less that 50% of the cells.)
same,Mean Body weight on day 12,P388 leukemia cells; [5],25.3 ± 0.4 g
same,Mean Number of Survival days,P388 leukemia cells; [5],14.6 ± 0.6 days
same,T/C (%),P388 leukemia cells; [5],117%
same,Mean Body weight on day 12,P388 leukemia cells; [6],24.1 ± 0.6 g
same,Mean Number of Survival days,P388 leukemia cells; [6],14.6 ± 0.5 days
same,T/C (%),P388 leukemia cells; [6],117%
same,Mean Body weight on day 12,P388 leukemia cells; [7],23.0 ± 0.5 g
same,Mean Number of Survival days,P388 leukemia cells; [7],16.1 ± 0.8 days
same,T/C (%),P388 leukemia cells; [7],129%
same,Mean Body weight on day 12,P388 leukemia cells; [8],22.3 ± 0.3 g
same,Mean Number of Survival days,P388 leukemia cells; [8],18.9 ± 0.9 days
same,T/C (%),P388 leukemia cells; [8],151%
same,increases in body weight seen in the control group,P388 leukemia cells; daily administrations of PLH 41.5 and 124 mg/kg,suppressed
same,T/C,P388 leukemia cells; daily dosage of 41.5 mg/kg for 12 days,129%
same,T/C,P388 leukemia cells; daily dosage of 124 (30) mg/kg for 12 days,151%
same,tremorgenic side effects,P388 leukemia cells; highest dose (124 mg/kg/day),did not induce such side effects
same,T/C,"P388 leukemia cells; single administration, 415 mg/kg PLH [(−)-PLH 100 mg/kg]",115%
